# Several values for one entry are separate records, joined by “and”; a condition that tells them apart may be missing. Identical values can stand only once.
# Columns and labels:
# [1] = system: Lp(a); assay: Lp(a) levels in cynomolgus monkeys; type: in vivo, cynomolgus monkey (Macaca fascicularis); set-up: key to Mean_pCFB_vs_Veh / Mean_pCFB_vs_Veh (Lp(a)): % change from pre-dose, treated group compared with vehicle; key to Mean_pCFB / Mean_pCFB (Lp(a)): % change in Lp(a) from before dosing; Lp(a): unit not given here; conditions: for Lp(a): Fig 3b raw data; for Mean_pCFB / Mean_pCFB_vs_Veh: Lp(a), female cynomolgus monkeys; for maximum decrease of median Lp(a) levels / %Lp(a) max decrease (dose, mg/kg): cynomolgus monkeys; for maximum decrease of median Lp(a) levels: after 5 days; for %Lp(a) max decrease (dose, mg/kg): 14 days dosing
# Description: Female or male Chinese Macaca fascicularis cynomolgus monkeys (as described in the figure legends) of unspecified ages with body weight ranging from 2.0 kg to 5.0 kg were housed in cages with a standard light cycle (12-h light, 12-h dark) at room temperature (20–26 °C); the relative humidity ranged from 30% to 70%. Monkeys were given fruits, vegetables or dietary enrichment as a form of environmental enrichment, and various cage enrichment devices. Purina Lab diet 5048C was provided BID and individual monkeys were identified by cage card. The monkeys were randomized to treatment groups by body weight and baseline plasma Lp(a) concentration, as determined by a commercially available Randox assay (Randox LP2757), using a BRAT for the study. In an example cynomolgus monkey study in which 39 monkeys were prescreened for baseline Lp(a) levels, the average Lp(a) level was 350 ± 57 µg ml^−1 (range 53–1,667 µg ml^−1). Monkeys were dosed orally with vehicle (purified water) or compounds QD or BID for 14 days, at dose levels and frequencies as previously described for each compound. Plasma samples were collected on days before dosing to establish baseline Lp(a) and after the morning dose during the study. Lp(a) levels were measured by an investigator who was blinded to group allocation using the Randox assay, and were quantified relative to the calibrator series (Randox LP3404). Data were analysed in GraphPad Prism v.9.5.1. The Lp(a) percentage change from before dosing in non-human primates was analysed by repeated measures ANOVA in SAS v.9.4 (SAS). At each time point, the Lp(a) percentage change for each treated group was compared with vehicle by the Bonferroni method.
# [2] = molecular target: T1, plasmin activity (Rattus norvegicus, UniProt Q01177); assay: Rat plasma plasmin (plasminogen) activity ex vivo after oral dosing; type: in vivo; conditions: for PLG activity (Vmax), Plasminogen (mean of replicates) / PLG activity (Vmax), Replicate 1 / PLG activity (Vmax), Replicate 2 / PLG activity % change from Vehicle: rat, individual animals; for PLG activity % change from Vehicle: Vehicle mean 267.0
# T1 construct: Plasma samples were collected via the abdominal aorta; from tissue; host or cells: Citrated plasma of orally dosed male Sprague Dawley rats
# Description: Male Sprague Dawley rats (Charles River, average body weight 310 g, aged eight to nine weeks old) were housed in cages with a standard light cycle (12-h light, 12-h dark), at room temperature (22 ± 4 °C), with a relative humidity of 30–70%. Rats were identified by numbers on the cage cards. After arrival, rats were fed on a normal diet (Harlan Teklad diet 2014) and randomized to treatment groups (n = 5 per group) by baseline plasma plasminogen concentration and activity using a BRAT. LSN3441732 and LY3473329 were administered QD orally at three dose levels (3.7, 12.3 and 37 mg kg^−1; 3.2, 10.5 and 31.6 mg kg^−1 per dose, respectively) or vehicle (10 ml kg^−1, 1% HEC, 0.25% Tween-80, Antifoam) for four days. Terminal blood was drawn under general anaesthesia 24 h after the day-4 oral dose. Plasma samples were collected via the abdominal aorta into a premeasured anticoagulant BD Vacutainer used for blood collection (2.7 ml, buffered sodium citrate). The liver was flash frozen in liquid nitrogen. To measure plasminogen activity, 100 µl plasma per well was added to a 96-well plate (Corning) and the following were added to the indicated concentrations: 7.5 mM CaCl2 and 117 mM NaCl. Wells were mixed and warmed to 37 °C. Urokinase (Millipore) was added at 125 U per well and the plate was incubated at 37 °C for 4 min. The plasminogen substrate Chromogenix S-2251 (DiaPharma) was added to a concentration of 3.3 mM. The mixture was added and the plate was sealed and placed in a prewarmed plate reader, shaken, and the absorbance read every 30 s for 2 h. The maximum slope for each curve was determined and the percentage inhibition was calculated relative to untreated controls. Plasminogen protein was measured using ELISA kits for rat (Abcam ab157740) according to the manufacturer’s instructions. Plasminogen activity (percentage) and mass (µg ml^−1) in rat were analysed by ANOVA in JMP 16.1.0. The percentage reduction of plasminogen activity and mass for each treated group was compared with vehicle by Dunnett’s method.
# [3] = 2mpk BID, Day 1, individual cynos
# [4] = 2mpk BID, Day 3, individual cynos
# [5] = 2mpk BID, Day 5, individual cynos
# [6] = 2mpk BID, Day 9, individual cynos
# [7] = 2mpk BID, Day 14, individual cynos
# [8] = 10mpk BID, Day 1, individual cynos
# [9] = 10mpk BID, Day 3, individual cynos
# [10] = 10mpk BID, Day 5, individual cynos
# [11] = 10mpk BID, Day 9, individual cynos
# [12] = 10mpk BID, Day 14, individual cynos
# T1 sequence (Q01177 20-812 limits assumed): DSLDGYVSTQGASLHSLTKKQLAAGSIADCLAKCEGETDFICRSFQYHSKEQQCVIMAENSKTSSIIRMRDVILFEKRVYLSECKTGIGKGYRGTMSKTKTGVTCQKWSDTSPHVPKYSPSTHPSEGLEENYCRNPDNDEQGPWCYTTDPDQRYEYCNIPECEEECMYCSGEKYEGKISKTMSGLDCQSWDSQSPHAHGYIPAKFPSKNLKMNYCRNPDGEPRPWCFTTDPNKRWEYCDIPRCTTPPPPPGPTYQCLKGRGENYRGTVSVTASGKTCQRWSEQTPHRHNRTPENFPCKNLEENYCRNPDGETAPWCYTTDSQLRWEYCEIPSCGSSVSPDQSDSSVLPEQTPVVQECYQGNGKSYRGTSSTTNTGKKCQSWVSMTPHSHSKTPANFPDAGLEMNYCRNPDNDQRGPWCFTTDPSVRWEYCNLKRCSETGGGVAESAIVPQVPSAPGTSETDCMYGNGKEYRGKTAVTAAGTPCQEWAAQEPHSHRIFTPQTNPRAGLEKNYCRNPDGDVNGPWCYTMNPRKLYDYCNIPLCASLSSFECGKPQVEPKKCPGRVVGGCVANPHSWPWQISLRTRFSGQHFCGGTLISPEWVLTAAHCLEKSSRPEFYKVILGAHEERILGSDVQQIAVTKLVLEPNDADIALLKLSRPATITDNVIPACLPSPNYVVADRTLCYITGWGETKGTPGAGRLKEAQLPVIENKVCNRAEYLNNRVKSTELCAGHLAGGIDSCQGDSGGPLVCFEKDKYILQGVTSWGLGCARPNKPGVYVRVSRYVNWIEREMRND
compound,measurement,setting,value
Cl.Cl.O=C(Nc1cccc(C[C@H](C(=O)O)[C@H]2CCNC2)c1)Nc1cccc(C[C@H](C(=O)O)[C@H]2CCNC2)c1 [LSN3441732],"pCFB (pct chng from baseline, Lp(a))",[1]; [3],-0.8715 pct and -9.178 pct and 9.115 pct and 2.958 pct and -14.9999 pct and -4.998 pct and -4.507 pct and 6.837 pct
same,Lp(a),[1]; [3],66.699 and 27.339 and 53.349 and 76.924
same,"pCFB (pct chng from baseline, Lp(a))",[1]; [4],-26.3908 pct and -7.214 pct and -20.0294 pct and -41.4028 pct and -34.8821 pct and 12.2337 pct and -15.3593 pct and -16.4032 pct
same,Lp(a),[1]; [4],59.119 and 21.392 and 39.615 and 78.588
same,"pCFB (pct chng from baseline, Lp(a))",[1]; [5],-60.4222 pct and -23.7562 pct and -53.193 pct and -73.9823 pct and -52.767 pct and 10.0362 pct and -38.056 pct and -25.4812 pct
same,Lp(a),[1]; [5],43.266 and 19.069 and 21.3 and 64.577
same,"pCFB (pct chng from baseline, Lp(a))",[1]; [6],-46.3414 pct and -22.6794 pct and -48.3056 pct and -58.1644 pct and -48.9556 pct and 33.2038 pct and -34.8562 pct and -42.8477 pct
same,Lp(a),[1]; [6],45.501 and 14.625 and 28.878
same,"pCFB (pct chng from baseline, Lp(a))",[1]; [7],-26.8256 pct and -20.2744 pct and -41.4618 pct and -48.6082 pct and -43.1214 pct and 61.8786 pct and -34.6787 pct and -24.6097 pct
same,Lp(a),[1]; [7],24.162 and 45.625 and 19.292 and 39.381
same,Lp(a),"[1]; 2mpk BID, Day -1 (pre-dose), individual cynos",76.499 and 27.63 and 59.314 and 80.73
same,Lp(a),"[1]; 2mpk BID, Day -14 (pre-dose), individual cynos",63.195 and 23.549 and 48.322 and 88.666
same,"pCFB (pct chng from baseline, Lp(a))",[1]; [8],6.085 pct and 18.5121 pct and 11.2235 pct and -12.4022 pct and 3.527 pct and -18.0886 pct and 0.3688 pct and -16.5769 pct
same,Lp(a),[1]; [8],42.107 and 61.295 and 35.316 and 53.315 and 65.761 and 52.068 and 17.81 and 84.78
same,"pCFB (pct chng from baseline, Lp(a))",[1]; [9],-30.0594 pct and -45.1266 pct and -34.624 pct and -67.6349 pct and -34.8372 pct and -50.8715 pct and -17.9315 pct and -61.9012 pct
same,Lp(a),[1]; [9],19.23 and 40.411 and 16.352 and 31.338 and 24.297 and 32.773 and 10.682 and 69.322
same,"pCFB (pct chng from baseline, Lp(a))",[1]; [10],-74.5889 pct and -41.8647 pct and -61.4356 pct and -52.9091 pct and -78.302 pct and -39.7105 pct and -69.6086 pct and -32.2067 pct
same,Lp(a),[1]; [10],12.826 and 33.59 and 11.492 and 22.573 and 16.289 and 30.322 and 6.608
same,"pCFB (pct chng from baseline, Lp(a))",[1]; [11],-56.8372 pct and -40.6982 pct and -59.7007 pct and -36.5829 pct and -68.9989 pct and -34.2069 pct and -69.9581 pct and 8.689 pct
same,Lp(a),[1]; [11],21.786 and 34.264 and 12.009 and 30.399 and 23.273 and 33.09 and 6.532
same,"pCFB (pct chng from baseline, Lp(a))",[1]; [12],-44.94 pct and -47.7665 pct and -60.9759 pct and -27.3662 pct and -62.6383 pct and -7.387 pct and -32.53 pct and -7.053 pct
same,Lp(a),[1]; [12],27.791 and 30.18 and 11.629 and 34.817 and 28.048 and 46.579 and 14.67
same,Lp(a),"[1]; 10mpk BID, Day -1 (pre-dose), individual cynos",51.607 and 58.876 and 34.406 and 53.514 and 88.739 and 49.824 and 82.77 and 24.664
same,Lp(a),"[1]; 10mpk BID, Day -14 (pre-dose), individual cynos",49.341 and 56.682 and 25.193 and 42.356 and 61.404 and 86.167 and 50.764 and 18.822
same,Mean_pCFB,"[1]; 2mpk BID, day 1",-1.96
same,Mean_pCFB_vs_Veh,"[1]; 2mpk BID, day 1",-1.99
same,Mean_pCFB,"[1]; 2mpk BID, day 3",-18.68
same,Mean_pCFB_vs_Veh,"[1]; 2mpk BID, day 3",-8.97
same,Mean_pCFB,"[1]; 2mpk BID, day 5",-39.7
same,Mean_pCFB_vs_Veh,"[1]; 2mpk BID, day 5",-22.16
same,Mean_pCFB,"[1]; 2mpk BID, day 9",-33.62
same,Mean_pCFB_vs_Veh,"[1]; 2mpk BID, day 9",-19.16
same,Mean_pCFB,"[1]; 2mpk BID, day 14",-22.21
same,Mean_pCFB_vs_Veh,"[1]; 2mpk BID, day 14",-17.15
same,Mean_pCFB,"[1]; 10mpk BID, day 1",-0.92
same,Mean_pCFB_vs_Veh,"[1]; 10mpk BID, day 1",-0.95
same,Mean_pCFB,"[1]; 10mpk BID, day 3",-42.87
same,Mean_pCFB_vs_Veh,"[1]; 10mpk BID, day 3",-33.16
same,Mean_pCFB,"[1]; 10mpk BID, day 5",-56.33
same,Mean_pCFB_vs_Veh,"[1]; 10mpk BID, day 5",-38.79
same,Mean_pCFB,"[1]; 10mpk BID, day 9",-44.79
same,Mean_pCFB_vs_Veh,"[1]; 10mpk BID, day 9",-30.33
same,Mean_pCFB,"[1]; 10mpk BID, day 14",-36.33
same,Mean_pCFB_vs_Veh,"[1]; 10mpk BID, day 14",-31.27
same,maximum decrease of median Lp(a) levels,[1]; 2 mg kg^−1 oral BID,45%
same,"%Lp(a) max decrease (dose, mg/kg)",[1]; 2 mg/kg BID,40%
same,maximum decrease of median Lp(a) levels,[1]; 10 mg kg^−1 oral BID,57%
same,"%Lp(a) max decrease (dose, mg/kg)",[1]; 10 mg/kg BID,56%
same,"PLG activity (Vmax), Plasminogen (mean of replicates)","[2]; dose 3.7 mpk, 3.7 mg/kg",240.6 and 263.3 and 236.5 and 207.9 and 235.8
same,"PLG activity (Vmax), Replicate 1","[2]; dose 3.7 mpk, 3.7 mg/kg",239.342 and 259.606 and 234.747 and 204.985 and 233.598
same,"PLG activity (Vmax), Replicate 2","[2]; dose 3.7 mpk, 3.7 mg/kg",241.939 and 266.922 and 238.196 and 210.884 and 238.070
same,PLG activity % change from Vehicle,"[2]; dose 3.7 mpk, 3.7 mg/kg",-9.88% and -1.40% and -11.44% and -22.12% and -11.68%
same,"PLG activity (Vmax), Plasminogen (mean of replicates)","[2]; dose 12.3 mpk, 12.3 mg/kg",282.2 and 249.5 and 239.5 and 205.0 and 186.8
same,"PLG activity (Vmax), Replicate 1","[2]; dose 12.3 mpk, 12.3 mg/kg",284.452 and 249.068 and 238.009 and 201.341 and 183.623
same,"PLG activity (Vmax), Replicate 2","[2]; dose 12.3 mpk, 12.3 mg/kg",279.877 and 249.884 and 240.921 and 208.639 and 189.912
same,PLG activity % change from Vehicle,"[2]; dose 12.3 mpk, 12.3 mg/kg",5.68% and -6.57% and -10.32% and -23.23% and -30.05%
same,"PLG activity (Vmax), Plasminogen (mean of replicates)","[2]; dose 37 mpk, 37 mg/kg",195.8 and 173.1 and 184.9 and 150.3 and 200.6
same,"PLG activity (Vmax), Replicate 1","[2]; dose 37 mpk, 37 mg/kg",217.532 and 172.649 and 184.379 and 149.241 and 196.980
same,"PLG activity (Vmax), Replicate 2","[2]; dose 37 mpk, 37 mg/kg",174.037 and 173.594 and 185.398 and 151.449 and 204.259
same,PLG activity % change from Vehicle,"[2]; dose 37 mpk, 37 mg/kg",-26.67% and -35.16% and -30.76% and -43.69% and -24.86%
same,plasma plasmin activity measured ex vivo,[2]; rats treated orally at pharmacological doses,decreased plasma plasmin activity

# Source: article PMC11111404, “Discovery of potent small-molecule inhibitors of lipoprotein(a) formation” (Nature, 2024)
